Data from ChEMBL document CHEMBL3507680, “University of Dundee, Gates Library screen for HepG2 cell viability”.

Test: Human HepG2 cell viability assay in 384 well format
Type: toxicity, cell-based
Design: dose 125 nL, time 70.5 hour; cytotoxicity at 70.5 h: concentration not given beside the values
Details: HepG2 cells, read-out: Inhibition

Compound | cytotoxicity at 70.5 h [%]
CN(C)c1nc(NCc2ccccc2Cn2cccn2)ncc1F | 5.75
Cn1cc(N2CCC3(CCCN(Cc4ccoc4)C3)C2=O)cn1 (stereo not drawn) | -6.63
CCCN(CCC)S(=O)(=O)c1cc(NC(C)=O)ccc1C | 4.44
Cc1cnn(C2CCCN(C(=O)Cc3cn4ccsc4n3)C2)c1 (stereo not drawn) | -5.39
CC(=O)NCc1noc2c1CN(CCN1CCCC1)CC2 | -8.27
CCS(=O)(=O)N1CCC[C@]2(C(=O)N(C)C)CN(c3ccccn3)C[C@@H]2C1 | -0.152
CCOc1ncnc2c1CCN(C(=O)c1cnccn1)CC2 | 1.88
COCCCNC(=O)c1c(C)noc1C(C)C | -11.8
CN1Cc2ccccc2CC2(CCN(c3ncccn3)CC2)C1=O | -14.8
COc1ccc(CN2CCOC3(CCCN(c4cnccn4)C3)C2)cc1 (stereo not drawn) | -4.22
CC(C)N1[C@@H](C(=O)NCC2CC2)C[C@@H]2CN(Cc3ccco3)C[C@@H]21 | -13.6
N#Cc1cccc(CN(CC(=O)N2CCCC2)CC2CCCO2)c1 (stereo not drawn) | 0.804
CC(C)N(CCC#N)C(=O)c1cnc(-c2ccc3c(c2)OCO3)s1 | -0.296
CC(Cn1cccn1)C(=O)N1CCC(Nc2cccnn2)CC1 (stereo not drawn) | -10
CN(C)S(=O)(=O)N1CC[C@]2(C[C@@H](OCc3ccccn3)CO2)C1 | -1.04
COCC(=O)NCC[C@H]1CC(C)(C)Oc2ccccc21 | -3.02
CCc1nc2n(n1)CC(NCc1cc(OC)c3c(c1)OCCO3)CC2 (stereo not drawn) | -5.82
COc1ccc(F)c(NCC(C)(C)S(C)(=O)=O)c1 | -4.68
CCS(=O)(=O)N1CCC(c2nnc(CN3CCOCC3)n2C)CC1 | -2.17
O=C(NC(Cc1ccsc1)c1nccs1)C1CC1 (stereo not drawn) | -6.11
CC(C)OCCS(=O)(=O)c1ccccc1C#N | 11.2
Cc1nn(C)c2c(NCCCn3cccn3)nc(C3CC3)nc12 | -5.95
O=C(NCCNc1ncccn1)C1CC(=O)N(Cc2ccccn2)C1 (stereo not drawn) | 17.5

Compound | cytotoxicity at 70.5 h [%]
c1csc(CN2C[C@H](OCC3CCOCC3)[C@H]3COC[C@H]32)n1 | 14.6
COCC(=O)NCc1cccc(OCCN(C)C2CCOCC2)c1 | -0.957
CC(C)CN1CCC2(C1)CN(S(=O)(=O)c1cn(C)cn1)C2 | 4.36
CC(O)CCN(C)S(=O)(=O)Cc1ccc(Cl)c(Cl)c1 (stereo not drawn) | -3.92
O=C(Nc1ccccc1)N1CCC(N2Cc3ncccc3C2=O)CC1 | -8.29
Cc1cccc2nc(C(=O)N3CCCC[C@]4(C)NC(=O)CCC[C@H]34)cn12 | -5.3
COc1cc(N2CCCC(c3ncc[nH]3)C2)ncn1 (stereo not drawn) | -1.53
COCCC1(CNC(=O)Nc2ccc(-n3ccnn3)cc2)CCC1 | 4.76
CCC1(CO)CCCN(c2ncccc2C#N)C1 (stereo not drawn) | 15.7
Cc1cc(C(F)(F)F)nn1CC(C)C(=O)Nc1ccccn1 (stereo not drawn) | -12.5
Cc1cc(CNCc2c(C(C)C)nn(C)c2N2CCOCC2)no1 | -6.34
COCCN1C(=O)CC[C@@H]2[C@@H]1CCN2Cc1c(C)noc1C | -5.73
Cc1cccc(C(C(=O)NCc2cc(C)[nH]n2)N(C)C)c1 (stereo not drawn) | 7.18
CC(=O)N1CCCC2(CCN(C(=O)c3ccc(Cl)c(C(F)(F)F)c3)C2)C1 (stereo not drawn) | -10.6
O=C(NCC1CCOC1)Nc1ccc(Oc2ccc(F)cc2)nc1 (stereo not drawn) | 15.8
CNc1cccc(C2CCN(C(=O)c3cccnc3)CC2)n1 | -5.08
Cc1cccc(CN2C(=O)C[C@H]3[C@@H]2CCN3Cc2ccc(F)cc2)n1 | -2.72
CCn1cc(NC(=O)NCC(O)CN2CCc3ccccc3C2)cn1 (stereo not drawn) | 11.8
Cc1cnc(CCN(C)C(=O)c2cccc(C)c2O)s1 | -5.87
CCCC(=O)NCC1CCCN(Cc2cc(C)c(C)o2)C1 (stereo not drawn) | 0.818
Cn1ccc2c(NC(=O)Cn3ncc4c(c3=O)CCCCC4)cccc21 | 3.29
O=C(O)c1ccccc1-c1c(-c2ccccc2)ncn1CC1CCCO1 (stereo not drawn) | 17.5
Cn1ncc2c1CCCC2NCc1cccc(OC2CCCC2)c1 (stereo not drawn) | -5.51

Compound | cytotoxicity at 70.5 h [%]
O=C(Cn1ccc2c(Cl)cccc21)Nc1nc[nH]n1 | -11.2
CN(C(=O)CC1=CCCCC1)C1CCCN(C2Cc3ccccc3C2)C1 (stereo not drawn) | -0.808
CN(C(=O)CCNC(=O)C1COc2ccccc21)c1ccccc1 (stereo not drawn) | -6.34
CCN(Cc1cccc(Cl)c1)Cc1nc2c(cnn2C)c(=O)[nH]1 | -7.7
CCN(C)S(=O)(=O)N(Cc1cscn1)c1ccccc1 | -7.14
CN1CCC(Cc2noc(-c3cn(Cc4ccc(F)cc4)nn3)n2)CC1 | -3.72
NC(=O)c1ccc2c(c1)nc1n2CCN(Cc2ccco2)C1 | -8.52
Cn1cc(NS(=O)(=O)c2ccc(C(F)(F)F)cc2)ccc1=O | -9.18
CCN(CC)C(=O)C1CCCN(CC(=O)Nc2c(C)nn(CC)c2C)C1 (stereo not drawn) | 22.3
CNC(=O)[C@H]1C[C@@H]2CN(C(=O)c3ccc(C)nc3)C[C@@H]2N1C | -15.1
CCOC(C)c1nccn1Cc1noc(CC)n1 (stereo not drawn) | 16.7
O=C(Nc1nccs1)NC1CCN(Cc2ccccn2)CC1 | -12.4
Cc1ccc(CNC(=O)c2c[nH]nc2NC(=O)C2CCC2)cc1 | -7.26
Cc1cc(CN2CCC(CNC(=O)c3nccc4ccccc34)C2)[nH]n1 (stereo not drawn) | 9.66
Cc1cc(-c2ccccc2C(=O)O)nc(C2CCCN(C)C2)n1 (stereo not drawn) | -7.61
O=C(CSc1nnc(N2CCNCC2)s1)Nc1ccccc1 | 27.6
Cc1nc(CN(C)C2CCCN(c3cccnn3)C2)nc2ccccc12 (stereo not drawn) | 1.21
O=C(O)CCC(=O)N1CCC(c2noc3cc(F)ccc23)CC1 | -10.8
CN(C)S(=O)(=O)N1CCC(Oc2ccc(C#N)cc2)CC1 | -4.56
O=S(=O)(NC[C@H]1OC[C@@H](NCc2cccs2)[C@@H]1O)c1ccccc1 | -10.7
O=C(c1ccnnc1)N1CCN2C[C@H](Oc3cccnc3)C[C@H]2C1 | -0.791
Cc1cnn(CC2CCCCN2C(=O)Cc2ccc(C#N)cc2)c1 (stereo not drawn) | -7.76
Cc1ccc(-n2ccnc2)c(C(=O)NCCCN(C)C)c1 | 2

Compound | cytotoxicity at 70.5 h [%]
Nc1cc(N2CCCC(COc3ccc(F)cc3)C2)ncn1 (stereo not drawn) | -12.7
CCCN1CCC(Cc2noc(-c3ncccc3C)n2)CC1 | -5.81
Cn1cc(C(C)(O)CNC(=O)c2ccc(Br)s2)cn1 (stereo not drawn) | 48.4
Brc1ccc(CN2CCC(NCc3ncc[nH]3)CC2)cc1 | -0.173
Cn1cc(CN2CCc3c(cnc(-c4ccccc4)c3C(=O)O)C2)cn1 | -5.39
CNc1ccc(C2CN(c3cc(C)ncn3)CCO2)nc1 (stereo not drawn) | 1.5
CC(C)C(C)n1nccc1NC(=O)Cn1cnc2ccccc21 (stereo not drawn) | -12.4
CCC(c1ccc(F)cc1)S(=O)(=O)CCO (stereo not drawn) | 15.3
CC(=O)Nc1nc(CNc2ccccc2CCC(F)(F)F)cs1 | -12
CC(c1ccon1)N(C)C(=O)C1CCN(C2CCCCC2)CC1 (stereo not drawn) | -1.12
CC(C)c1nc(CN(C)C(=O)c2ccc(CN3CCCCC3)cc2)cs1 | -7.38
CC(C)(C)C(=O)N1CC(=O)N(Cc2ccco2)CC(O)C1 (stereo not drawn) | -4.89
O=C(Cn1ccnc1)N1C[C@@H]2CC[C@H](Oc3cccc(F)c3)[C@@H]2C1 | -6.97
C[C@@H]1C[C@H](C(F)(F)F)n2nc(C3CCN(C(=O)C(C)(C)C)CC3)cc2N1 | -6.86
COCCN(Cc1cccnc1)S(=O)(=O)c1cccc(F)c1F | 5.02
COc1ccccc1C1=NOC(CC2(C(=O)O)CCOCC2)C1 (stereo not drawn) | 19.1
Cc1nc(C2CCCN2CC(=O)NCCc2ccsc2)no1 (stereo not drawn) | -2.7
CN1CCN(C(=O)CCC(=O)c2cccs2)Cc2ccccc21 | -0.893
COc1ccc(C)cc1NC(=O)c1coc(C)n1 | -5.37
CCNc1cc2c(nn1)CCN(C(=O)c1cc(C)no1)C2 | -3.88
CN(C)Cc1nn(C)c2c1CN(C(=O)c1cccc(C#N)c1)C2 | -11.5
O=C(NCc1ccnc(OCC(F)(F)F)c1)NCC1CCOC1 (stereo not drawn) | -15.8
CCc1[nH]ncc1C(=O)N1CCOC(c2nc(C)n[nH]2)C1 (stereo not drawn) | -2.8

Compound | cytotoxicity at 70.5 h [%]
Cc1nc(N)cc(N2CCCC(COc3cccc(F)c3)C2)n1 (stereo not drawn) | -16.1
Cc1noc(-c2ccc(N(C)Cc3nccs3)nc2)n1 | -9.04
COc1ccccc1C1Cn2ccnc2CN1Cc1c[nH]nc1C (stereo not drawn) | -1.22
Cc1cc(NC(=O)c2ccc(Br)cc2F)n(C)n1 | 12.5
Cc1ccc(N2CC[C@H]3C[C@@H](C(=O)N4CCOCC4)O[C@H]3C2)nn1 | -0.412
CNc1nc2c(s1)C(c1cc(Cl)ccc1F)CC(=O)N2 (stereo not drawn) | 57.6
O=C(Nc1cccnc1)[C@@H]1CCO[C@@H]2CCN(Cc3cccnc3)C[C@@H]21 | -22.1
Cc1nc(CNCC(C)c2nc3ccccc3o2)cs1 (stereo not drawn) | 0.552
c1cnn(C2CN(c3ncnc4[nH]ccc34)C2)c1 | -0.76
O=C(Cc1ccccc1F)N1C[C@@H]2COC[C@]2(COc2cccnc2)C1 | -11.5
Cc1ccc(-c2ncc(C(=O)NCCS(N)(=O)=O)s2)c(C)c1 | -1.3
CCOc1cccc(COC(=O)c2ccc(F)cn2)n1 | -2.51
Cc1nc(CN2CCN(C(=O)c3c(C)noc3C)CC2)cs1 | -3.65
COCc1cccc(C(=O)N2CCCC2)c1 | 4.08
Fc1cccc(N2CCCC3(CN(Cc4ccccn4)CCO3)C2)c1 (stereo not drawn) | -1.7
CC(C)(O)CNC(=O)c1sccc1Br | 0.0507
Cn1ncc2c1C(COCC1CC1)CN(Cc1cccnc1)C2 (stereo not drawn) | -4.66
Cc1ccc(NS(=O)(=O)c2cnn(Cc3ccccc3)c2)c(C(=O)O)c1 | -21.3
Cc1cccc(C(=O)N2CCCC[C@]3(C)NC(=O)CCC[C@H]23)n1 | -8.97
Cn1cc(CN2CCOC(CCNC(=O)c3ccsc3)C2)cn1 (stereo not drawn) | -0.896
COc1cccc2c1OCC(NCCc1cnn(-c3ccccc3)c1)C2 (stereo not drawn) | -8.4
